Results reported in the supplement of paper PMC10307832.

These cell lines were tested with C[C@@]1(C(=O)Nc2ccc(F)nc2)CCCN1c1nc(Nc2cc(C3CC3)n[nH]2)c2cccn2n1 + COc1cc2c(Oc3ccc(NC(=O)C4(C(=O)Nc5ccc(F)cc5)CC4)cc3F)ccnc2cc1OCCCN1CCOCC1 [Foretinib] (partner 0.25 µM) (assay: relative viability (nuclei count vs DMSO), 5 days (fraction); higher = more cells survive). Conditions: first compound 0.1265 µM.
Procedure, shortened: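 Dosing by pin tool came one day after lung cancer cell lines were seeded in 1536-well plates, using either one drug or a fixed anchor-drug dose plus five library-drug doses (not always all listed) in √10 steps. After 5 days, nuclei were counted on 4× images. Relative viability is treated-well nuclei count divided by vehicle-well nuclei count, and values are medians of duplicate plates.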

| Cell Line | relative viability |
| --- | --- |
| NCI-H2087 | 0.801 |
| SK-MES-1 | 0.853 |
| H3255 | 1.1 |
| COR-L23 | 0.865 |
| COR-L 105 | 0.993 |
| IA-LM | 1.11 |
| LOU-NH91 | 0.94 |
| ChaGo-K-1 | 0.829 |
| NCI-H2170 | 1.02 |
| NCI-H2405 | 0.818 |
| HOP-62 | 1.11 |
| A549 | 0.659 |
| LU99A | 0.467 |
| BEN | 0.649 |
| HARA | 0.78 |
| SW 900 | 0.694 |
| NCI-H661 | 1.03 |
| NCI-H1299 | 1.06 |
| NCI-H1563 | 0.975 |
| ABC-1 | 0.782 |
| NCI-H358 | 0.385 |
| NCI-H650 | 0.738 |

Same assay, conditions: first compound 0.4 µM

| Cell Line | relative viability |
| --- | --- |
| NCI-H2342 | 0.812 |
| NCI-H1623 | 0.57 |
| NCI-H727 | 0.357 |
| NCI-H1650 | 0.984 |
| EBC-1 | 0.0953 |
| NCI-H1703 | 0.309 |
| NCI-H1993 | 0.532 |
| SW 1573 | 0.494 |
| NCI-H838 | 0.631 |
| LCLC-103H | 0.422 |
| NCI-H520 | 0.796 |
| NCI-H2126 | 0.485 |
| EMC-BAC-2 | 0.327 |
| NCI-H2085 | 0.73 |
| Calu-6 | 0.758 |
| HCC-366 | 0.9 |
| NCI-H1666 | 0.778 |
| NCI-H596 | 0.649 |
| LK-2 | 0.671 |
| NCI-H2087 | 0.705 |
| SK-MES-1 | 0.542 |

| Cell Line | relative viability |
| --- | --- |
| H3255 | 0.883 |
| COR-L23 | 0.762 |
| COR-L 105 | 0.828 |
| IA-LM | 0.921 |
| LOU-NH91 | 0.86 |
| ChaGo-K-1 | 0.828 |
| NCI-H2170 | 0.973 |
| NCI-H2405 | 0.742 |
| HOP-62 | 1.02 |
| A549 | 0.582 |
| LU99A | 0.478 |
| BEN | 0.678 |
| HARA | 0.652 |
| SW 900 | 0.558 |
| NCI-H661 | 1.06 |
| NCI-H1299 | 0.585 |
| NCI-H1563 | 0.784 |
| ABC-1 | 0.744 |
| NCI-H358 | 0.202 |
| NCI-H650 | 0.819 |

Same assay, conditions: first compound 1.265 µM

| Cell Line | relative viability |
| --- | --- |
| NCI-H2342 | 0.917 |
| NCI-H1623 | 0.672 |
| NCI-H727 | 0.324 |
| NCI-H1650 | 1.08 |
| EBC-1 | 0.11 |
| NCI-H1703 | 0.273 |
| NCI-H1993 | 0.555 |
| SW 1573 | 0.659 |
| NCI-H838 | 0.887 |
| LCLC-103H | 0.637 |
| NCI-H520 | 0.768 |
| NCI-H2126 | 0.865 |
| EMC-BAC-2 | 0.574 |
